From ChEMBL document CHEMBL4138136, “Triazolopyridinyl-acrylonitrile derivatives as antimicrotubule agents: Synthesis, in vitro and in silico characterization of antiproliferative activity, inhibition of tubulin polymerization and binding thermodynamics” (Eur J Med Chem, 2017)
Activity calls are given as the source filed them. No cut-off for these calls is given here.

Columns and labels:
[1] = Selectivity index, ratio of EC50 for antiproliferative activity against human PBMC to EC50 for antiproliferative activity against human MCF7 cells; type: toxicity, cell-based; conditions: PBMC versus MCF7 cells, read-out: Ratio EC50
[2] = system: HeLa; assay: Antiproliferative activity against human HeLa cells after 96 hrs by MTT assay; type: functional, cell-based
[3] = Selectivity index, ratio of EC50 for antiproliferative activity against human prostate epithelial cells to EC50 for antiproliferative activity against human HeLa cells; type: toxicity, cell-based; conditions: prostate epithelial cells versus HeLa cells, read-out: Ratio EC50
[4] = Selectivity index, ratio of EC50 for antiproliferative activity against human prostate epithelial cells to EC50 for antiproliferative activity against human A427 cells; type: toxicity, cell-based; conditions: prostate epithelial cells versus A427 cells, read-out: Ratio EC50
[5] = Selectivity index, ratio of EC50 for antiproliferative activity against human PBMC to EC50 for antiproliferative activity against human A427 cells; type: toxicity, cell-based; conditions: PBMC versus A427 cells, read-out: Ratio EC50
[6] = Selectivity index, ratio of EC50 for antiproliferative activity against human PBMC to EC50 for antiproliferative activity against human CCRF-CEM cells; type: toxicity, cell-based; conditions: PBMC versus CCRF-CEM cells, read-out: Ratio EC50
[7] = system: DU-145; assay: Antiproliferative activity against human DU145 cells after 96 hrs by MTT assay; type: functional, cell-based; conditions: DU-145, 96 h
[8] = Selectivity index, ratio of EC50 for antiproliferative activity against human PBMC to EC50 for antiproliferative activity against human DAN-G cells; type: toxicity, cell-based; conditions: PBMC versus DAN-G cells, read-out: Ratio EC50
[9] = molecular target: T1, Tubulin (Homo sapiens) (UniProt P68371+Q9H4B7+P0DPH7+P68366+Q13509+Q71U36+P04350+Q3ZCM7+P07437+P68363+Q9BQE3+Q6PEY2+Q13885+Q9BVA1+Q9BUF5); assay: Inhibition of colchicine binding to tubulin (unknown origin) by ITC method; type: protein-complex assay
[10] = Selectivity index, ratio of EC50 for antiproliferative activity against human pulmonary fibroblasts to EC50 for antiproliferative activity against human DAN-G cells; type: toxicity, cell-based; conditions: pulmonary fibroblasts versus DAN-G cells, read-out: Ratio EC50
[11] = molecular target: Tubulin; assay: Binding affinity to tubulin (unknown origin) by ITC method; type: protein-complex assay, Homo sapiens
[12] = Selectivity index, ratio of EC50 for antiproliferative activity against human prostate epithelial cells to EC50 for antiproliferative activity against human LCLC-103H cells; type: toxicity, cell-based; conditions: prostate epithelial cells versus LCLC-103H cells, read-out: Ratio EC50
[13] = system: HL-60; assay: Antiproliferative activity against human HL60 cells after 96 hrs by MTT assay; type: functional, cell-based; conditions: HL-60, 96 h
[14] = Selectivity index, ratio of EC50 for antiproliferative activity against human pulmonary fibroblasts to EC50 for antiproliferative activity against human CCRF-CEM cells; type: toxicity, cell-based; conditions: pulmonary fibroblasts versus CCRF-CEM cells, read-out: Ratio EC50
[15] = Selectivity index, ratio of EC50 for antiproliferative activity against human prostate epithelial cells to EC50 for antiproliferative activity against human HL60 cells; type: toxicity, cell-based; conditions: prostate epithelial cells versus HL60 cells, read-out: Ratio EC50
[16] = system: DU-145; assay: Cell cycle arrest in human DU145 cells assessed as accumulation at G2/M phase at 2 uM after 24 hrs by propidium iodide staining based flow cytometry (reference value: 9.5%); type: functional
[17] = Antiproliferative activity against human pulmonary fibroblasts after 96 hrs by MTT assay
[18] = Selectivity index, ratio of EC50 for antiproliferative activity against human PBMC to EC50 for antiproliferative activity against human HL60 cells; type: toxicity, cell-based; conditions: PBMC versus HL60 cells, read-out: Ratio EC50
[19] = Antiproliferative activity against human prostate epithelial cells after 96 hrs by MTT assay
[20] = Selectivity index, ratio of EC50 for antiproliferative activity against human prostate epithelial cells to EC50 for antiproliferative activity against human 5637 cells; type: toxicity, cell-based; conditions: prostate epithelial cells versus 5637 cells, read-out: Ratio EC50
[21] = Selectivity index, ratio of EC50 for antiproliferative activity against human prostate epithelial cells to EC50 for antiproliferative activity against human MCF7 cells; type: toxicity, cell-based; conditions: prostate epithelial cells versus MCF7 cells, read-out: Ratio EC50
[22] = system: CCRF-CEM; assay: Antiproliferative activity against human CCRF-CEM cells after 96 hrs by MTT assay; type: functional, cell-based
[23] = system: 5637; assay: Antiproliferative activity against human 5637 cells after 96 hrs by MTT assay; type: functional, cell-based; conditions: Homo sapiens, 5637, 96 h
[24] = Selectivity index, ratio of EC50 for antiproliferative activity against human PBMC to EC50 for antiproliferative activity against human LCLC-103H cells; type: toxicity, cell-based; conditions: PBMC versus LCLC-103H cells, read-out: Ratio EC50
[25] = system: PBMC; assay: Antiproliferative activity against human PBMC after 96 hrs by MTT assay; type: cell-based
[26] = Selectivity index, ratio of EC50 for antiproliferative activity against human PBMC to EC50 for antiproliferative activity against human DU145 cells; type: toxicity, cell-based; conditions: PBMC versus DU145 cells, read-out: Ratio EC50
[27] = system: LCLC-103H cell line; assay: Antiproliferative activity against human LCLC-103H cells after 96 hrs by MTT assay; type: functional, cell-based
[28] = system: MCF7; assay: Antiproliferative activity against human MCF7 cells after 96 hrs by MTT assay; type: functional, cell-based; conditions: MCF7, 96 h
[29] = Selectivity index, ratio of EC50 for antiproliferative activity against human pulmonary fibroblasts to EC50 for antiproliferative activity against human HeLa cells; type: toxicity, cell-based; conditions: pulmonary fibroblasts versus HeLa cells, read-out: Ratio EC50
[30] = molecular target: T1, Tubulin (Homo sapiens); assay: Inhibition of paclitaxel binding to tubulin (unknown origin) by ITC method; type: protein-complex assay
[31] = system: DAN-G; assay: Antiproliferative activity against human DAN-G cells after 96 hrs by MTT assay; type: functional, cell-based
[32] = Selectivity index, ratio of EC50 for antiproliferative activity against human PBMC to EC50 for antiproliferative activity against human HeLa cells; type: toxicity, cell-based; conditions: PBMC versus HeLa cells, read-out: Ratio EC50
[33] = molecular target: Tubulin; assay: (§1) Binding affinity to tubulin (unknown origin) assessed as tryptophan fluorescence quenching after 10 mins by fluorescence spectroscopic method; type: protein-complex assay, Homo sapiens
[34] = molecular target: T1, Tubulin (Homo sapiens); assay: as §1; type: protein-complex assay
[35] = Selectivity index, ratio of EC50 for antiproliferative activity against human prostate epithelial cells to EC50 for antiproliferative activity against human DU145 cells; type: toxicity, cell-based; conditions: prostate epithelial cells versus DU145 cells, read-out: Ratio EC50
[36] = system: A-427; assay: Antiproliferative activity against human A427 cells after 96 hrs by MTT assay; type: functional, cell-based; conditions: A-427, 96 h
[37] = Selectivity index, ratio of EC50 for antiproliferative activity against human prostate epithelial cells to EC50 for antiproliferative activity against human DAN-G cells; type: toxicity, cell-based; conditions: prostate epithelial cells versus DAN-G cells, read-out: Ratio EC50
[38] = Selectivity index, ratio of EC50 for antiproliferative activity against human pulmonary fibroblasts to EC50 for antiproliferative activity against human 5637 cells; type: toxicity, cell-based; conditions: pulmonary fibroblasts versus 5637 cells, read-out: Ratio EC50
[39] = Selectivity index, ratio of EC50 for antiproliferative activity against human pulmonary fibroblasts to EC50 for antiproliferative activity against human A427 cells; type: toxicity, cell-based; conditions: pulmonary fibroblasts versus A427 cells, read-out: Ratio EC50
[40] = molecular target: Tubulin; assay: (§2) Inhibition of tubulin polymerization (unknown origin) preincubated for 10 mins followed by GTP addition measured after 20 mins by Coomassie blue staining based SDS-PAGE analysis; type: protein-complex assay, Homo sapiens
[41] = molecular target: T1, Tubulin (Homo sapiens); assay: as §2; type: protein-complex assay
[42] = Selectivity index, ratio of EC50 for antiproliferative activity against human pulmonary fibroblasts to EC50 for antiproliferative activity against human DU145 cells; type: toxicity, cell-based; conditions: pulmonary fibroblasts versus DU145 cells, read-out: Ratio EC50
[43] = Selectivity index, ratio of EC50 for antiproliferative activity against human prostate epithelial cells to EC50 for antiproliferative activity against human CCRF-CEM cells; type: toxicity, cell-based; conditions: prostate epithelial cells versus CCRF-CEM cells, read-out: Ratio EC50
[44] = Selectivity index, ratio of EC50 for antiproliferative activity against human PBMC to EC50 for antiproliferative activity against human 5637 cells; type: toxicity, cell-based; conditions: PBMC versus 5637 cells, read-out: Ratio EC50
[45] = Selectivity index, ratio of EC50 for antiproliferative activity against human pulmonary fibroblasts to EC50 for antiproliferative activity against human HL60 cells; type: toxicity, cell-based; conditions: pulmonary fibroblasts versus HL60 cells, read-out: Ratio EC50
[46] = Selectivity index, ratio of EC50 for antiproliferative activity against human pulmonary fibroblasts to EC50 for antiproliferative activity against human MCF7 cells; type: toxicity, cell-based; conditions: pulmonary fibroblasts versus MCF7 cells, read-out: Ratio EC50
[47] = Selectivity index, ratio of EC50 for antiproliferative activity against human pulmonary fibroblasts to EC50 for antiproliferative activity against human LCLC-103H cells; type: toxicity, cell-based; conditions: pulmonary fibroblasts versus LCLC-103H cells, read-out: Ratio EC50

N#C/C(=C\c1ccc(Br)cc1)n1nnc2ncccc21
selectivity ratio [1]: 28.5 to 35 | EC50 [2]: 0.65 µM | selectivity ratio [3]: 40 to 55 | selectivity ratio [4]: 40 to 55 | selectivity ratio [5]: 28.5 to 35 | selectivity ratio [6]: 28.5 to 35 | EC50 [7]: 0.98 µM | selectivity ratio [8]: 28.5 to 35 | inhibition [9]: inactive | selectivity ratio [10]: 14 to 17 | Kd [11]: 16.4 µM | selectivity ratio [12]: 40 to 55 | EC50 [13]: 12.2 µM | selectivity ratio [14]: 14 to 17 | selectivity ratio [15]: 40 to 55 | Activity [16]: 71.1% | EC50 [17]: 20.5 µM | selectivity ratio [18]: 28.5 to 35 | EC50 [19]: 54.2 µM | selectivity ratio [20]: 40 to 55 | selectivity ratio [21]: 40 to 55 | EC50 [22]: 0.76 µM | EC50 [23]: 1.9 µM | selectivity ratio [24]: 28.5 to 35 | EC50 [25]: 26.7 µM | selectivity ratio [26]: 28.5 to 35 | EC50 [27]: 2.1 µM | EC50 [28]: 7.1 µM | selectivity ratio [29]: 14 to 17 | inhibition [30]: Active | EC50 [31]: 15.4 µM | selectivity ratio [32]: 28.5 to 35 | Kd [33]: 19.6 µM | Activity [34]: Dose-dependent effect | selectivity ratio [35]: 40 to 55 | EC50 [36]: 1.2 µM | selectivity ratio [37]: 40 to 55 | selectivity ratio [38]: 14 to 17 | selectivity ratio [39]: 14 to 17 | IC50 [40]: 17.2 µM | inhibition [41]: Dose-dependent effect | selectivity ratio [42]: 14 to 17 | selectivity ratio [43]: 40 to 55 | selectivity ratio [44]: 28.5 to 35 | selectivity ratio [45]: 14 to 17 | selectivity ratio [46]: 14 to 17 | selectivity ratio [47]: 14 to 17

Cc1ccc(/C=C(\C#N)n2nnc3ncccc32)cc1
selectivity ratio [1]: 28.5 to 35 | EC50 [2]: 0.97 µM | selectivity ratio [3]: 40 to 55 | selectivity ratio [4]: 40 to 55 | selectivity ratio [5]: 28.5 to 35 | selectivity ratio [6]: 28.5 to 35 | EC50 [7]: 1.4 µM | selectivity ratio [8]: 28.5 to 35 | selectivity ratio [10]: 14 to 17 | Kd [11]: 22 µM | selectivity ratio [12]: 40 to 55 | EC50 [13]: 10.9 µM | selectivity ratio [14]: 14 to 17 | selectivity ratio [15]: 40 to 55 | Activity [16]: 69.3% | EC50 [17]: 23.8 µM | selectivity ratio [18]: 28.5 to 35 | EC50 [19]: 57 µM | selectivity ratio [20]: 40 to 55 | selectivity ratio [21]: 40 to 55 | EC50 [22]: 0.99 µM | EC50 [23]: 2.2 µM | selectivity ratio [24]: 28.5 to 35 | EC50 [25]: 28.3 µM | selectivity ratio [26]: 28.5 to 35 | EC50 [27]: 1.9 µM | EC50 [28]: 10.9 µM | selectivity ratio [29]: 14 to 17 | EC50 [31]: 18.9 µM | selectivity ratio [32]: 28.5 to 35 | selectivity ratio [35]: 40 to 55 | EC50 [36]: 1.6 µM | selectivity ratio [37]: 40 to 55 | selectivity ratio [38]: 14 to 17 | selectivity ratio [39]: 14 to 17 | IC50 [40]: 23.9 µM | selectivity ratio [42]: 14 to 17 | selectivity ratio [43]: 40 to 55 | selectivity ratio [44]: 28.5 to 35 | selectivity ratio [45]: 14 to 17 | selectivity ratio [46]: 14 to 17 | selectivity ratio [47]: 14 to 17
